# Results reported in US4363805A, “Aminodesoxy-1.4;3.6-dianhydrohexitol nitrates and pharmaceutical composition” (Firma Willmar Schwabe, priority 1980, dated 1982).
# Key:
# female NMRI-albino mice = experiment: Acute toxicity, intravenous, mice; type: in vivo; settings: within 24 hours
# [1] = Acute toxicity, intravenous, mice; type: in vivo; settings: mouse, in vivo; intravenous, within 24 hours; read-out: Evaluated LD50-range
# mongrel cats = experiment: Inotropic and heart-circulatory effectiveness on narcotised cats, intravenous; type: in vivo, cat; settings: 6 animals; for blood pressure before / dp/dt (inotropism) before / heart frequency before: before administration
# narcotised guinea pigs = experiment: Blood pressure experiments on guinea pigs, i.v.; type: in vivo, guinea pig
compound,measurement,setting,value
"O=[N+]([O-])O[C@H]1CO[C@H]2[C@@H]1OC[C@@H]2NCCCOc1cccc(C(F)(F)F)c1 [Example 58, 5-[3-(3-Trifluoromethylphenoxy)-propylamino]-5-desoxy-1.4;3.6-dianhydro-L-iditol 2-nitrate]",Frequency of death,female NMRI-albino mice; 100 mg/kg i.v.,7/12
same,LD50 at 24 h,[1],~100 mg/kg
"O=[N+]([O-])O[C@@H]1CO[C@H]2[C@@H]1OC[C@@H]2NCCCCc1ccccc1 [Example 43, 2-(4-phenylbutylamino)-2-desoxy-1.4;3.6-dianhydro-D-glucitol 5-nitrate]",Frequency of death,female NMRI-albino mice; 50 mg/kg i.v.,1/3
same,Frequency of death,female NMRI-albino mice; 100 mg/kg i.v.,3/3
same,Frequency of death,female NMRI-albino mice; 200 mg/kg i.v.,6/6
same,LD50 at 24 h,[1],≥ 50 mg/kg
"COc1cc(OC)cc(OCCCN[C@H]2CO[C@H]3[C@@H]2OC[C@@H]3O[N+](=O)[O-])c1 [Example 66, 5-[3-(3,5-Dimethoxyphenoxy)-propylamino]-5-desoxy-1.4;3.6-dianhydro-L-iditol 2-nitrate]",Frequency of death,female NMRI-albino mice; 100 mg/kg i.v.,2/10
same,Frequency of death,female NMRI-albino mice; 200 mg/kg i.v.,3/3
same,LD50 at 24 h,[1],100 to 200 mg/kg
"O=[N+]([O-])O[C@H]1CO[C@H]2[C@@H]1OC[C@@H]2NCCCCCc1ccccc1 [Example 30, 5-(5-Phenylpentylamino)-5-desoxy-1.4;3.6-dianhydro-L-iditol 2-nitrate]",blood pressure before,mongrel cats; 0.25 mg/kg i.v.,105.7 mm.Hg
same,dp/dt (inotropism) before,mongrel cats; 0.25 mg/kg i.v.,9600 mm.Hg/sec
same,heart frequency before,mongrel cats; 0.25 mg/kg i.v.,199.7 min⁻¹
same,blood pressure WD,mongrel cats; 0.25 mg/kg i.v.,9.2 min
same,blood pressure after,mongrel cats; 0.25 mg/kg i.v.,88.2 mm.Hg
same,blood pressure Δ,mongrel cats; 0.25 mg/kg i.v.,-17.5 mm.Hg
same,dp/dt (inotropism) after,mongrel cats; 0.25 mg/kg i.v.,8340 mm.Hg/sec
same,dp/dt (inotropism) Δ,mongrel cats; 0.25 mg/kg i.v.,-1260 mm.Hg/sec
same,dp/dt WD,mongrel cats; 0.25 mg/kg i.v.,10.2 min
same,heart frequency after,mongrel cats; 0.25 mg/kg i.v.,198.0 min⁻¹
same,heart frequency Δ,mongrel cats; 0.25 mg/kg i.v.,-1.7 min⁻¹
same,blood pressure WD,mongrel cats; 0.50 mg/kg i.v.,11.2 min
same,blood pressure after,mongrel cats; 0.50 mg/kg i.v.,81.8 mm.Hg
same,blood pressure Δ,mongrel cats; 0.50 mg/kg i.v.,-25.0 mm.Hg
same,dp/dt (inotropism) after,mongrel cats; 0.50 mg/kg i.v.,7540 mm.Hg/sec
same,dp/dt (inotropism) Δ,mongrel cats; 0.50 mg/kg i.v.,-1820 mm.Hg/sec
same,dp/dt WD,mongrel cats; 0.50 mg/kg i.v.,13.7 min
same,heart frequency after,mongrel cats; 0.50 mg/kg i.v.,200.3 min⁻¹
same,heart frequency Δ,mongrel cats; 0.50 mg/kg i.v.,-0.7 min⁻¹
same,blood pressure WD,mongrel cats; 1.00 mg/kg i.v.,22.2 min
same,blood pressure after,mongrel cats; 1.00 mg/kg i.v.,73.3 mm.Hg
same,blood pressure Δ,mongrel cats; 1.00 mg/kg i.v.,-33.0 mm.Hg
same,dp/dt (inotropism) after,mongrel cats; 1.00 mg/kg i.v.,6160 mm.Hg/sec
same,dp/dt (inotropism) Δ,mongrel cats; 1.00 mg/kg i.v.,-2180 mm.Hg/sec
same,dp/dt WD,mongrel cats; 1.00 mg/kg i.v.,23.6 min
same,heart frequency after,mongrel cats; 1.00 mg/kg i.v.,196.0 min⁻¹
same,heart frequency Δ,mongrel cats; 1.00 mg/kg i.v.,-2.3 min⁻¹
same,blood pressure WD,mongrel cats; 2.50 mg/kg i.v.,> 10 min
same,blood pressure after,mongrel cats; 2.50 mg/kg i.v.,60.3 mm.Hg
same,blood pressure Δ,mongrel cats; 2.50 mg/kg i.v.,-45.8 mm.Hg
same,dp/dt (inotropism) after,mongrel cats; 2.50 mg/kg i.v.,5840 mm.Hg/sec
same,dp/dt (inotropism) Δ,mongrel cats; 2.50 mg/kg i.v.,-2060 mm.Hg/sec
same,dp/dt WD,mongrel cats; 2.50 mg/kg i.v.,> 10 min
same,heart frequency after,mongrel cats; 2.50 mg/kg i.v.,188.3 min⁻¹
same,heart frequency Δ,mongrel cats; 2.50 mg/kg i.v.,-2.0 min⁻¹
"CC(=O)Nc1ccc(OCCCN[C@H]2CO[C@H]3[C@@H]2OC[C@@H]3O[N+](=O)[O-])cc1 [Example 73, 5-[3-(4-Acetamidophenoxy)-propylamino]-5-desoxy-1.4;3.6-dianhydro-L-iditol 2-nitrate]",Frequency of death,female NMRI-albino mice; 100 mg/kg i.v.,0/3
same,Frequency of death,female NMRI-albino mice; 200 mg/kg i.v.,0/3
same,LD50 at 24 h,[1],> 200 mg/kg
"COc1cccc(OCCCN[C@H]2CO[C@H]3[C@@H]2OC[C@@H]3O[N+](=O)[O-])c1OC [Example 67, 5-[3-(2,3-Dimethoxyphenoxy)-propylamino]-5-desoxy-1.4;3.6-dianhydro-L-iditol 2-nitrate]",Frequency of death,female NMRI-albino mice; 50 mg/kg i.v.,0/10
same,Frequency of death,female NMRI-albino mice; 100 mg/kg i.v.,3/3
same,Frequency of death,female NMRI-albino mice; 200 mg/kg i.v.,3/3
same,LD50 at 24 h,[1],~70 mg/kg
"COc1cccc(OC)c1OCCCN[C@H]1CO[C@H]2[C@@H]1OC[C@@H]2O[N+](=O)[O-] [Example 65, 5-[3-(2,6-Dimethoxyphenoxy)-propylamino]-5-desoxy-1.4;3.6-dianhydro-L-iditol 2-nitrate]",Frequency of death,female NMRI-albino mice; 50 mg/kg i.v.,4/10
same,Frequency of death,female NMRI-albino mice; 100 mg/kg i.v.,10/10
same,Frequency of death,female NMRI-albino mice; 200 mg/kg i.v.,3/3
same,LD50 at 24 h,[1],~50 mg/kg
"COc1ccccc1OCC(O)CN[C@H]1CO[C@H]2[C@@H]1OC[C@@H]2O[N+](=O)[O-] (stereo partly drawn) [Example 46, 5-[2-Hydroxy-3-(2-methoxyphenoxy)-propylamino]-5-desoxy-1.4;3.6-dianhydro-L-iditol 2-nitrate]",Frequency of death,female NMRI-albino mice; 100 mg/kg i.v.,0/3
same,Frequency of death,female NMRI-albino mice; 200 mg/kg i.v.,2/3
same,LD50 at 24 h,[1],100 to 200 mg/kg
N[C@H]1CO[C@H]2[C@@H]1OC[C@@H]2O[N+](=O)[O-] [1 c],Frequency of death,female NMRI-albino mice; 200 mg/kg i.v.,0/3
same,LD50 at 24 h,[1],> 200 mg/kg
"COc1ccc(OCC(O)CN[C@H]2CO[C@H]3[C@@H]2OC[C@@H]3O[N+](=O)[O-])cc1 (stereo partly drawn) [Example 44, 5-[2-Hydroxy-3-(4-methoxyphenoxy)-propylamino]-5-desoxy-1.4;3.6-dianhydro-L-iditol 2-nitrate]",Frequency of death,female NMRI-albino mice; 100 mg/kg i.v.,0/3
same,Frequency of death,female NMRI-albino mice; 200 mg/kg i.v.,2/3
same,LD50 at 24 h,[1],100 to 200 mg/kg
"COc1ccc(CCCCN[C@H]2CO[C@H]3[C@@H]2OC[C@@H]3O[N+](=O)[O-])cc1 [Example 32, 5-[4-(4-Methoxyphenyl)-butylamino]-5-desoxy-1.4;3.6-dianhydro-L-iditol 2-nitrate]",Frequency of death,female NMRI-albino mice; 50 mg/kg i.v.,1/10
same,Frequency of death,female NMRI-albino mice; 100 mg/kg i.v.,10/10
same,LD50 at 24 h,[1],50 to 100 mg/kg
"O=[N+]([O-])O[C@@H]1CO[C@H]2[C@@H]1OC[C@@H]2NCCCOc1ccccc1 [Example 42, 2-(3-Phenoxypropylamino)-2-desoxy-1.4;3.6-dianhydro-D-glucitol 5-nitrate]",Frequency of death,female NMRI-albino mice; 50 mg/kg i.v.,0/3
same,Frequency of death,female NMRI-albino mice; 100 mg/kg i.v.,2/3
same,Frequency of death,female NMRI-albino mice; 200 mg/kg i.v.,6/6
same,LD50 at 24 h,[1],50 to 100 mg/kg
"O=[N+]([O-])O[C@H]1CO[C@H]2[C@@H]1OC[C@@H]2NCCCOc1ccccc1Cl [Example 69, 5-[3-(2-Chlorophenoxy)-propylamino]-5-desoxy-1.4;3.6-dianhydro-L-iditol 2-nitrate]",Frequency of death,female NMRI-albino mice; 50 mg/kg i.v.,0/10
same,Frequency of death,female NMRI-albino mice; 100 mg/kg i.v.,3/6
same,LD50 at 24 h,[1],50 to 100 mg/kg
"O=[N+]([O-])O[C@H]1CO[C@H]2[C@@H]1OC[C@@H]2NCCCOc1ccc(Cl)cc1 [Example 68, 5-[3-(4-Chlorophenoxy)-propylamino]-5-desoxy-1.4;3.6-dianhydro-L-iditol 2-nitrate]",Frequency of death,female NMRI-albino mice; 100 mg/kg i.v.,4/9
same,LD50 at 24 h,[1],~100 mg/kg
"O=[N+]([O-])O[C@H]1CO[C@H]2[C@@H]1OC[C@@H]2NCCCCOc1ccccc1 [Example 37, 5-(4-Phenoxybutylamino)-5-desoxy-1.4;3.6-dianhydro-L-iditol 2-nitrate]",Frequency of death,female NMRI-albino mice; 50 mg/kg i.v.,3/10
same,Frequency of death,female NMRI-albino mice; 100 mg/kg i.v.,10/10
same,Frequency of death,female NMRI-albino mice; 200 mg/kg i.v.,3/3
same,LD50 at 24 h,[1],≥ 50 mg/kg
"CN(CCCCc1ccccc1)[C@H]1CO[C@H]2[C@@H]1OC[C@@H]2O[N+](=O)[O-] [Example 22, 5-[N-(4-Phenylbutyl)-N-methylamino]-5-desoxy-1.4;3.6-dianhydro-L-iditol 2-nitrate]",Frequency of death,female NMRI-albino mice; 50 mg/kg i.v.,1/3
same,Frequency of death,female NMRI-albino mice; 100 mg/kg i.v.,3/3
same,Frequency of death,female NMRI-albino mice; 200 mg/kg i.v.,6/6
same,LD50 at 24 h,[1],≥ 50 mg/kg
"O=[N+]([O-])O[C@H]1CO[C@H]2[C@@H]1OC[C@@H]2NCCCOc1ccc(Cl)cc1Cl [Example 72, 5-[3-(2,4-Dichlorophenoxy)-propylamino]-5-desoxy-1.4;3.6-dianhydro-L-iditol2-nitrate]",Frequency of death,female NMRI-albino mice; 100 mg/kg i.v.,0/6
same,LD50 at 24 h,[1],> 100 mg/kg
"CCOc1ccccc1OCC(O)CN[C@H]1CO[C@H]2[C@@H]1OC[C@@H]2O[N+](=O)[O-] (stereo partly drawn) [Example 47, 5-[2-Hydroxy-3-(2-ethoxyphenoxy)-propylamino]-5-desoxy-1.4;3.6-dianhydro-L-iditol 2-nitrate]",blood pressure after,narcotised guinea pigs; 0.25 mg/kg i.v.,41.25 ± 2.78 mm.Hg
same,blood pressure Δ,narcotised guinea pigs; 0.25 mg/kg i.v.,-5.75 mm.Hg
same,blood pressure before,"narcotised guinea pigs; 0.25 mg/kg i.v., before administration",47.00 ± 3.39 mm.Hg
same,blood pressure after,narcotised guinea pigs; 1.00 mg/kg i.v.,33.75 ± 2.02 mm.Hg
same,blood pressure Δ,narcotised guinea pigs; 1.00 mg/kg i.v.,-10.75 mm.Hg
same,blood pressure after,narcotised guinea pigs; 2.50 mg/kg i.v.,25.75 ± 1.31 mm.Hg
same,blood pressure Δ,narcotised guinea pigs; 2.50 mg/kg i.v.,-13.75 mm.Hg
same,blood pressure before,mongrel cats; 0.25 mg/kg i.v.,125.7 mm.Hg
same,dp/dt (inotropism) before,mongrel cats; 0.25 mg/kg i.v.,8333 mm.Hg/sec
same,heart frequency before,mongrel cats; 0.25 mg/kg i.v.,187.3 min⁻¹
same,blood pressure WD,mongrel cats; 0.25 mg/kg i.v.,3.0 min
same,blood pressure after,mongrel cats; 0.25 mg/kg i.v.,121.7 mm.Hg
same,blood pressure Δ,mongrel cats; 0.25 mg/kg i.v.,-4.0 mm.Hg
same,dp/dt (inotropism) after,mongrel cats; 0.25 mg/kg i.v.,7433 mm.Hg/sec
same,dp/dt (inotropism) Δ,mongrel cats; 0.25 mg/kg i.v.,-900 mm.Hg/sec
same,dp/dt WD,mongrel cats; 0.25 mg/kg i.v.,3.7 min
same,heart frequency after,mongrel cats; 0.25 mg/kg i.v.,188.7 min⁻¹
same,heart frequency Δ,mongrel cats; 0.25 mg/kg i.v.,+1.4 min^-1
same,blood pressure WD,mongrel cats; 0.50 mg/kg i.v.,5.7 min
same,blood pressure after,mongrel cats; 0.50 mg/kg i.v.,114.2 mm.Hg
same,blood pressure Δ,mongrel cats; 0.50 mg/kg i.v.,-11.3 mm.Hg
same,dp/dt (inotropism) after,mongrel cats; 0.50 mg/kg i.v.,7150 mm.Hg/sec
same,dp/dt (inotropism) Δ,mongrel cats; 0.50 mg/kg i.v.,-1417 mm.Hg/sec
same,dp/dt WD,mongrel cats; 0.50 mg/kg i.v.,9.5 min
same,heart frequency after,mongrel cats; 0.50 mg/kg i.v.,196.0 min⁻¹
same,heart frequency Δ,mongrel cats; 0.50 mg/kg i.v.,+0.3 min^-1
same,blood pressure WD,mongrel cats; 1.00 mg/kg i.v.,8.2 min
same,blood pressure after,mongrel cats; 1.00 mg/kg i.v.,100.8 mm.Hg
same,blood pressure Δ,mongrel cats; 1.00 mg/kg i.v.,-24.3 mm.Hg
same,dp/dt (inotropism) after,mongrel cats; 1.00 mg/kg i.v.,5067 mm.Hg/sec
same,dp/dt (inotropism) Δ,mongrel cats; 1.00 mg/kg i.v.,-2983 mm.Hg/sec
same,dp/dt WD,mongrel cats; 1.00 mg/kg i.v.,10.9 min
same,heart frequency after,mongrel cats; 1.00 mg/kg i.v.,187.0 min⁻¹
same,heart frequency Δ,mongrel cats; 1.00 mg/kg i.v.,-5.0 min⁻¹
same,blood pressure WD,mongrel cats; 2.50 mg/kg i.v.,> 9.0 min
same,blood pressure after,mongrel cats; 2.50 mg/kg i.v.,79.5 mm.Hg
same,blood pressure Δ,mongrel cats; 2.50 mg/kg i.v.,-45.2 mm.Hg
same,dp/dt (inotropism) after,mongrel cats; 2.50 mg/kg i.v.,2933 mm.Hg/sec
same,dp/dt (inotropism) Δ,mongrel cats; 2.50 mg/kg i.v.,-4500 mm.Hg/sec
same,dp/dt WD,mongrel cats; 2.50 mg/kg i.v.,> 10 min
same,heart frequency after,mongrel cats; 2.50 mg/kg i.v.,171.7 min⁻¹
same,heart frequency Δ,mongrel cats; 2.50 mg/kg i.v.,-20.3 min⁻¹
